Assay results: ChEMBL document CHEMBL1134567, “Prediction of the aroma quality and the threshold values of some pyrazines using artificial neural networks” (J Med Chem, 2001)

Key:
Assay type in all cases: functional
[1] = Evaluated for its olfactory detection threshold value and indicates quantitative measure of odour impression
[2] = Evaluated for its olfactory detection threshold value and indicates quantitative measure of odour impression; No threshold value.
[3] = Olfactory detection threshold value and quantitative measure of odour impression; No threshold value.
[4] = Evaluated for its olfactory detection threshold value and indicates quantitative measure of odor impression

Compound	Log 1/C [1]	other results
COc1ncc(C)nc1CC(C)C	4.84	
CCCCCCc1nccnc1OC	6.44	
CCCCCc1cnccn1	4.48	
CC(C)Cc1cnccn1	2.53	
CCCCc1nccnc1OC	6.52	
Cc1nc(CC(C)C)cnc1Oc1ccccc1	2.88	
COc1nc(C)c(OC)nc1C	2.97	
COc1nc(C(C)=O)c(OC)nc1C		Log 1/C [2]: No threshold value
CCc1cnccn1		Log 1/C [3]: No threshold value
CCSc1cnccn1		Log 1/C [3]: No threshold value
Cc1ncc(CC(C)C)nc1C		Log 1/C [2]: No threshold value
COc1nc(C)cnc1C(C)=O		Log 1/C [2]: No threshold value
CSc1ncc(CC(C)C)nc1C	4.12	
CCCCCc1nccnc1OC	6.95	
CC(C)Cc1cncc(N(C)C)n1	1.55	
CCCC(C)c1nccnc1OC (stereo not drawn)		Log 1/C [3]: No threshold value
CCSc1nccnc1C		Log 1/C [2]: No threshold value
C/C=C\CCc1nccnc1OC	5.52	
CCCc1nccnc1C	3.36	
COc1nc(C)cnc1C		Log 1/C [2]: No threshold value
COc1ncc(C)nc1C(C)(C)O		Log 1/C [2]: No threshold value
CCCCCc1nccnc1OCC	6.38	
Cc1nccnc1CC(C)C	3.06	
COc1nccnc1CCC(C)C	7.46	
COc1nccnc1C		Log 1/C [3]: No threshold value

Compound	Log 1/C [1]	other results
CCCCCc1nccnc1SCC	5.32	
CCCCCc1nccnc1SC	6.21	
Cc1cnc(C)c(C)n1		Log 1/C [3]: No threshold value
CC(C)c1cnc(Oc2ccccc2)cn1	2.79	
CCCC(C)Cc1cnc(SC)c(C)n1 (stereo not drawn)	4.27	
CCCCCCCCCCc1nccnc1OCC		Log 1/C [4]: 3.64
Cc1ncc(C(C)C)nc1C	3.88	
CCCCCCCCCCc1nccnc1OC		Log 1/C [4]: 3.8
CCc1nccnc1CC	5.13	
C/C=C/CCc1nccnc1OC	6.1	
CCCCCCCCc1nccnc1Sc1ccccc1		Log 1/C [3]: No threshold value
COc1nccnc1CC(C)C	7.47	
CSc1cnccn1		Log 1/C [3]: No threshold value
CCC(C)Cc1cnc(OC)c(C)n1 (stereo not drawn)	7.29	
CCOc1nccnc1C		Log 1/C [2]: No threshold value
COc1cncc(C)n1		Log 1/C [3]: No threshold value
CCCc1nccnc1SC	5.23	
CCC(C)CCc1cnc(Oc2ccccc2)c(C)n1 (stereo not drawn)	3.29	
CCc1nccnc1OC		Log 1/C [3]: No threshold value
CSc1nccnc1CC(C)C	5.74	
C=CCCCc1nccnc1OC	6.77	
CCOc1cnccn1		Log 1/C [3]: No threshold value
CCc1ncc(C)nc1C		Log 1/C [2]: No threshold value
COc1ncc(CC(C)C)nc1C	6	
CCC(C)CCc1cnc(OC)c(C)n1 (stereo not drawn)	5.24	

Compound	Log 1/C [1]	other results
CCOc1nccnc1CC(C)C		Log 1/C [3]: No threshold value
CCCCCCCCc1nccnc1OC		Log 1/C [4]: 6.57
COc1nccnc1C(C)C	6.8	
Cc1cnc(C)cn1		Log 1/C [3]: No threshold value
CCOc1ncc(CCC(C)CC)nc1C (stereo not drawn)	4.87	
Cc1nccnc1C(C)C	3.93	
COc1nc(C)c(C)nc1CC(C)C	2.79	
CCc1cnc(C)c(C)n1		Log 1/C [2]: No threshold value
CCCCCCCc1nccnc1OC	6.9	
COc1nc(C(C)C)c(OC)nc1C	3.45	
CCCCCc1cnc(C)c(C)n1	3.3	
COc1nc(CC(C)C)cnc1CC(C)C		Log 1/C [3]: No threshold value
CCC(C)Cc1nccnc1OC (stereo not drawn)	7.18	
Cc1nccnc1C		Log 1/C [3]: No threshold value
CCCCCCC(C)Cc1nccnc1OC (stereo not drawn)		Log 1/C [3]: No threshold value
CCSc1nccnc1CC		Log 1/C [2]: No threshold value
CCOc1ncc(C(C)CC)nc1C (stereo not drawn)	4.21	
CCCC(C)Cc1nccnc1OC (stereo not drawn)	7.38	
CCCc1nccnc1OC	6.1	
COc1nc(OC)c(C(C)C)nc1C	2.89	
CCCCOc1cnccn1		Log 1/C [3]: No threshold value
CCCCCCCCc1nccnc1OCC		Log 1/C [4]: 5.07
Cc1cnc(C)c(CCC(C)C)n1		Log 1/C [2]: No threshold value
COc1nc(C)cnc1C(C)C	6.57	
COc1nc(C)cnc1C(C)(C)O		Log 1/C [2]: No threshold value

Compound	Log 1/C [1]	other results
CSc1nccnc1C		Log 1/C [3]: No threshold value
CCc1nc(C)cnc1C		Log 1/C [2]: No threshold value
Cc1nc(C)c(C)nc1C		Log 1/C [2]: No threshold value
CCC(C)c1nccnc1OC (stereo not drawn)	6.62	
CCCCc1cnccn1	2.53	
Cc1nccnc1N(C)C	2.88	
CCCCCCCCc1nccnc1SCC		Log 1/C [4]: 5.1
CNc1nccnc1C		Log 1/C [3]: No threshold value
CCCCc1nccnc1SCC	4.69	
COc1nccnc1CCCCCCC(C)C		Log 1/C [3]: No threshold value
COc1nc(C)cnc1CC(C)C	5.84	
COc1nc(C(C)C)c(OC)nc1C(C)C	2.52	
CCOc1ncc(CC(C)CC)nc1C (stereo not drawn)	4.54	
COc1ncc(C)nc1C(C)C	6.52	
CCOc1ncc(CC(C)C)nc1C	4.08	
CCSc1cnc(CCC(C)CC)cn1 (stereo not drawn)	3.63	
COc1nccnc1CCCC(C)C	7.51	
CCCCCCCCc1nccnc1SC		Log 1/C [4]: 5.53
COc1cnccn1		Log 1/C [3]: No threshold value
CCSc1ncc(CC(C)CC)nc1C (stereo not drawn)	4.95	
CSc1nccnc1C(C)C	6.55	
CCc1cnc(C)cn1		Log 1/C [4]: 2.45
CSc1cncc(C)n1		Log 1/C [3]: No threshold value
